Tests used:
[1] = Thermostability of aqueous lipid solutions; type: physicochemical; conditions: exposed to temperature below 10° C. or above 25° C.
From the text: EP-0351651 describes the use of PEG-C8/C10-glycerides as an absorption promoter for insulin. Especially for orally and buccally administered insulin. From the disclosure it appears that an increase in concentration of PEG-C8/C10-glycerides results in an increase in absorption. With respect to a nasal composition the composition described has a relatively high concentration of absorption enhancer, namely about 50% w/w. WO2003070280 (Absorption enhancing agent) describes the use of PEG-C8/C10-glycerides as absorption promoter for e.g. sumatriptan, in most preferred concentrations of 0.1-10%. Here, the function of PEG-C8/C10-glycerides should not promote absorption, since that will remove the active ingredient from the surface such as the mucosal surface, and into the systemic circulation. However, PEG-C8/C10 is able to act as a thermostabilizer for formulations containing lipids that are insoluble in water.

Staphylococcus aureus = conditions: cited from earlier work
Staphylococcus epidermis = conditions: cited from earlier work
Streptococci A = conditions: cited from earlier work
Streptococci pyogenes = conditions: cited from earlier work
Haemophilus influenzae = conditions: cited from earlier work
Streptococcus D = conditions: cited from earlier work
Streptococcus mutans = conditions: cited from earlier work
Streptococcus pneumoniae = conditions: cited from earlier work
Corynebacteria sp. = conditions: cited from earlier work
Nococardia asteroides = conditions: cited from earlier work
Micrococcus sp. = conditions: cited from earlier work
Pseudomonas aeruginosa = conditions: cited from earlier work
Listeria monocytogenes = conditions: cited from earlier work
Lactobacillus jensenii = conditions: cited from earlier work
Chlamydia trachomatis = conditions: cited from earlier work
Neisseria gonorrhoeae = conditions: cited from earlier work
Helicobacter pylori = conditions: cited from earlier work
Campylobacter jejuni = conditions: cited from earlier work
Candida albicans (yeast) = conditions: cited from earlier work
[2] = system: Herpes virus type 1 (HSV-1); conditions: cited from earlier work
[3] = system: Herpes virus type 2 (HSV-2); conditions: cited from earlier work
[4] = system: Respiratory syncytial virus (RSV); conditions: cited from earlier work
Influenza A virus = conditions: cited from earlier work
[5] = system: Parainfluenza virus type 2; conditions: cited from earlier work

## CCCCCCCCCC(=O)OCC(O)CO (stereo not shown) [monocaprin]
[1]
  precipitation in aqueous formulations: will easily precipitate
Staphylococcus aureus
  bactericidal effect: bacteriocid
Staphylococcus epidermis
  bactericidal effect: bacteriocid
Streptococci A
  bactericidal effect: bacteriocid
Streptococci pyogenes
  bactericidal effect: bacteriocid
Haemophilus influenzae
  bactericidal effect: bacteriocid
Streptococcus D
  effectiveness against microbe: effective
Streptococcus mutans
  effectiveness against microbe: effective
Streptococcus pneumoniae
  effectiveness against microbe: effective
Corynebacteria sp.
  effectiveness against microbe: effective
Nococardia asteroides
  effectiveness against microbe: effective
Micrococcus sp.
  effectiveness against microbe: effective
Pseudomonas aeruginosa
  effectiveness against microbe: effective
Listeria monocytogenes
  effectiveness against microbe: effective
Lactobacillus jensenii
  effectiveness against microbe: effective
Chlamydia trachomatis
  effectiveness against microbe: effective
Neisseria gonorrhoeae
  effectiveness against microbe: effective
Helicobacter pylori
  effectiveness against microbe: effective
Campylobacter jejuni
  effectiveness against microbe: effective
Candida albicans (yeast)
  effectiveness against microbe: effective
[2]
  effectiveness against virus: effective
[3]
  effectiveness against virus: effective
[4]
  effectiveness against virus: effective
Influenza A virus
  effectiveness against virus: effective
[5]
  effectiveness against virus: effective

Source: US11337949B2, “Thermostable formulation of biologically active substances” (CAPRETTO EHF., priority 2016, dated 2022)
